Experimental data from patent US10906890B2, “Triazole phenyl compounds as agonists of the APJ receptor” (AMGEN INC., priority 2016, dated 2021).

target: human APJ receptor (Homo sapiens (Human), UniProt P35414); assay: [35S]GTPγS binding assay on membranes from CHO cells stably expressing human APJ receptor; type: biochemical; conditions: means of several independent experiments, read-out: Activity hAPJ SPA EC50 IP
Protocol: The human APJ receptor was cloned by polymerase chain reaction and the gene encoding the receptor was subcloned in pFLAG-CMV™-3 expression vector (Sigma, Saint Louis, Mo. USA) in-house at Amgen. A GTPγS binding assay was performed on membranes prepared from CHO cells stably expressing human APJ receptor. The optimum experimental conditions for the concentrations of GDP, MgCl2, and NaCl in the assay buffer were initially determined. […] Incubation was at RT for 90 min and the microplate was read using a ViewLux™ ultra HTS Microplate Imager (PerkinElmer, Inc.). All the results presented are means of several independent experiments and analyzed by non-linear regression methods using the commercially available program Prism (GraphPad, San Diego, Calif.) providing the EC50 values detailed in Table 28.

Sequence of human APJ receptor (P35414 whole entry): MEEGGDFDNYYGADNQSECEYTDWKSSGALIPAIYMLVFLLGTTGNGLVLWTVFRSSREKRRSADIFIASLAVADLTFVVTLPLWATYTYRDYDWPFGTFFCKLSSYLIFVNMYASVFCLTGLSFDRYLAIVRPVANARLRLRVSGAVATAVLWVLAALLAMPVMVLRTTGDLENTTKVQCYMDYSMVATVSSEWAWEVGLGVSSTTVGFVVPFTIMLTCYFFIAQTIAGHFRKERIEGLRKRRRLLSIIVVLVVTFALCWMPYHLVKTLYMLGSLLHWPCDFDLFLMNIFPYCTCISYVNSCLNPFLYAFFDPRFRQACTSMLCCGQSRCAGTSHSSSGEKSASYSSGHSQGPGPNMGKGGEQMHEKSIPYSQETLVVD

| SMILES | EC50 |
| --- | --- |
| COc1cccc(OC)c1-n1c(NS(=O)(=O)[C@H]2C[C@@H](O)CN(c3ncc(F)cn3)C2)nnc1-c1ccccc1 (mixture of isomers) [Example 53.0, (3R,5S)-N-(4-(2,6-dimethoxyphenyl)-5-phenyl-4H-1,2,4-triazol-3-yl)-1-(5-fluoro-2-pyrimidinyl)-5-hydroxy-3-piperidinesulfonamide and (3S,5R)-N-(4-(2,6-dimethoxyphenyl)-5-phenyl-4H-1,2,4-triazol-3-yl)-1-(5-fluoro-2-pyrimidinyl)-5-hydroxy-3-piperidinesulfonamide] | 4.9 nM |
| COc1cccc(OC)c1-n1c(NS(=O)(=O)[C@@H](C)[C@H](OC)c2ncc(C)cn2)nnc1-c1cccc([C@](C)(O)C(F)(F)F)c1 (mixture of isomers) [Example 88.0, (1R,2S)—N-(4-(2,6-Dimethoxyphenyl)-5-(3-((1S)-2,2,2-trifluoro-1-hydroxy-1-methylethyl)phenyl)-4H-1,2,4-triazol-3-yl)-1-methoxy-1-(5-methyl-2-pyrimidinyl)-2-propanesulfonamide and (1R,2S)—N-(4-(2,6-dimethoxyphenyl)-5-(3-((1R)-2,2,2-trifluoro-1-hydroxy-1-methylethyl)phenyl)-4H-1,2,4-triazol-3-yl)-1-methoxy-1-(5-methyl-2-pyrimidinyl)-2-propanesulfonamide] | 23 nM |
| COc1cccc(OC)c1-n1c(NS(=O)(=O)[C@@H](C)Cc2ncc(F)cn2)nnc1-c1ccccc1 (single isomer, unassigned) [Example 8.0, (2S)-N-(4-(2,6-dimethoxyphenyl)-5-phenyl-4H-1,2,4-triazol-3-yl)-1-(5-fluoro-2-pyrimidinyl)-2-propanesulfonamide or (2R)-N-(4-(2,6-dimethoxyphenyl)-5-phenyl-4H-1,2,4-triazol-3-yl)-1-(5-fluoro-2-pyrimidinyl)-2-propanesulfonamide] | 15 nM |
| COc1ncnc(OC)c1-n1c(NS(=O)(=O)[C@@H](C)Cc2ncc(F)cn2)nnc1-c1ccccc1 (single isomer, unassigned) [Example 9.0, (2S)-N-(4-(4,6-dimethoxy-5-pyrimidinyl)-5-phenyl-4H-1,2,4-triazol-3-yl)-1-(5-fluoro-2-pyrimidinyl)-2-propanesulfonamide or (2R)-N-(4-(4,6-dimethoxy-5-pyrimidinyl)-5-phenyl-4H-1,2,4-triazol-3-yl)-1-(5-fluoro-2-pyrimidinyl)-2-propanesulfonamide] | 40 nM |
| COc1ncnc(OC)c1-n1c(NS(=O)(=O)[C@@H](C)Cc2ncc(F)cn2)nnc1-c1ccccc1 (single isomer, unassigned) [Example 11.0, (2S)-N-(4-(4,6-dimethoxy-5-pyrimidinyl)-5-phenyl-4H-1,2,4-triazol-3-yl)-1-(5-fluoro-2-pyrimidinyl)-2-propanesulfonamide or (2R)-N-(4-(4,6-dimethoxy-5-pyrimidinyl)-5-phenyl-4H-1,2,4-triazol-3-yl)-1-(5-fluoro-2-pyrimidinyl)-2-propanesulfonamide] | 6.4 nM |
| COc1cccc(OC)c1-n1c(NS(=O)(=O)[C@H]2CCCN(c3ncc(F)cn3)C2)nnc1-c1ccccc1 (single isomer, unassigned) [Example 21.0, (3S)—N-(4-(2,6-Dimethoxyphenyl)-5-phenyl-4H-1,2,4-triazol-3-yl)-1-(5-fluoro-2-pyrimidinyl)-3-piperidinesulfonamide or (3R)—N-(4-(2,6-dimethoxyphenyl)-5-phenyl-4H-1,2,4-triazol-3-yl)-1-(5-fluoro-2-pyrimidinyl)-3-piperidinesulfonamide] | 7.3 nM |
| COc1cccc(OC)c1-n1c(NS(=O)(=O)[C@H]2CCCN(c3ncc(F)cn3)C2)nnc1-c1ccccc1 (single isomer, unassigned) [Example 22.0, (3S)—N-(4-(2,6-dimethoxyphenyl)-5-phenyl-4H-1,2,4-triazol-3-yl)-1-(5-fluoro-2-pyrimidinyl)-3-piperidinesulfonamide or (3R)—N-(4-(2,6-dimethoxyphenyl)-5-phenyl-4H-1,2,4-triazol-3-yl)-1-(5-fluoro-2-pyrimidinyl)-3-piperidinesulfonamide] | 170 nM |
| COc1ccnc(OC)c1-n1c(NS(=O)(=O)[C@@H](C)[C@H](OC)c2ncc(C)cn2)nnc1-c1ccccc1 (single isomer, unassigned) [Example 23.0, (1R,2S,P)-N-(4-(2,4-dimethoxy-3-pyridinyl)-5-phenyl-4H-1,2,4-triazol-3-yl)-1-methoxy-1-(5-methyl-2-pyrimidinyl)-2-propanesulfonamide or (1R,2S,M)-N-(4-(2,4-dimethoxy-3-pyridinyl)-5-phenyl-4H-1,2,4-triazol-3-yl)-1-methoxy-1-(5-methyl-2-pyrimidinyl)-2-propanesulfonamide] | 5.9 nM |
| COc1ccnc(OC)c1-n1c(NS(=O)(=O)[C@@H](C)[C@H](OC)c2ncc(C)cn2)nnc1-c1ccccc1 (single isomer, unassigned) [Example 24.0, (1R,2S,P)-N-(4-(2,4-dimethoxy-3-pyridinyl)-5-phenyl-4H-1,2,4-triazol-3-yl)-1-methoxy-1-(5-methyl-2-pyrimidinyl)-2-propanesulfonamide or (1R,2S,M)-N-(4-(2,4-dimethoxy-3-pyridinyl)-5-phenyl-4H-1,2,4-triazol-3-yl)-1-methoxy-1-(5-methyl-2-pyrimidinyl)-2-propanesulfonamide] | 0.27 nM |
| COc1ncnc(OC)c1-n1c(NS(=O)(=O)[C@H]2CCCN(c3ncc(F)cn3)C2)nnc1-c1ccccc1 (single isomer, unassigned) [Example 27.0, (3S)-N-(4-(4,6-dimethoxy-5-pyrimidinyl)-5-phenyl-4H-1,2,4-triazol-3-yl)-1-(5-fluoro-2-pyrimidinyl)-3-piperidinesulfonamide or (3R)-N-(4-(4,6-dimethoxy-5-pyrimidinyl)-5-phenyl-4H-1,2,4-triazol-3-yl)-1-(5-fluoro-2-pyrimidinyl)-3-piperidinesulfonamide] | 32 nM |
| COc1ncnc(OC)c1-n1c(NS(=O)(=O)[C@H]2CCCN(c3ncc(F)cn3)C2)nnc1-c1ccccc1 (single isomer, unassigned) [Example 28.0, (3S)-N-(4-(4,6-dimethoxy-5-pyrimidinyl)-5-phenyl-4H-1,2,4-triazol-3-yl)-1-(5-fluoro-2-pyrimidinyl)-3-piperidinesulfonamide or (3R)-N-(4-(4,6-dimethoxy-5-pyrimidinyl)-5-phenyl-4H-1,2,4-triazol-3-yl)-1-(5-fluoro-2-pyrimidinyl)-3-piperidinesulfonamide] | 410 nM |
| COc1ncnc(OC)c1-n1c(NS(=O)(=O)[C@H]2CCCN(c3ncc(C)cn3)C2)nnc1-c1ccccc1 (single isomer, unassigned) [Example 29.0, (S)—N-(4-(4,6-Dimethoxypyrimidin-5-yl)-5-phenyl-4H-1,2,4-triazol-3-yl)-1-(5-methylpyrimidin-2-yl)piperidine-3-sulfonamide or (R)—N-(4-(4,6-dimethoxypyrimidin-5-yl)-5-phenyl-4H-1,2,4-triazol-3-yl)-1-(5-methylpyrimidin-2-yl)piperidine-3-sulfonamide] | 390 nM |
| COc1ncnc(OC)c1-n1c(NS(=O)(=O)[C@H]2CCCN(c3ncc(C)cn3)C2)nnc1-c1ccccc1 (single isomer, unassigned) [Example 30.0, (S)—N-(4-(4,6-Dimethoxypyrimidin-5-yl)-5-phenyl-4H-1,2,4-triazol-3-yl)-1-(5-methylpyrimidin-2-yl)piperidine-3-sulfonamide or (R)—N-(4-(4,6-dimethoxypyrimidin-5-yl)-5-phenyl-4H-1,2,4-triazol-3-yl)-1-(5-methylpyrimidin-2-yl)piperidine-3-sulfonamide] | 100 nM |
| COc1ncnc(OC)c1-n1c(NS(=O)(=O)[C@H]2CCCN(c3ncc(Cl)cn3)C2)nnc1-c1ccccc1 (single isomer, unassigned) [Example 31.0, (3S)-1-(5-chloro-2-pyrimidinyl)-N-(4-(4,6-dimethoxy-5-pyrimidinyl)-5-phenyl-4H-1,2,4-triazol-3-yl)-3-piperidinesulfonamide or (3R)-1-(5-chloro-2-pyrimidinyl)-N-(4-(4,6-dimethoxy-5-pyrimidinyl)-5-phenyl-4H-1,2,4-triazol-3-yl)-3-piperidinesulfonamide] | 340 nM |
| COc1ncnc(OC)c1-n1c(NS(=O)(=O)[C@H]2CCCN(c3ncc(Cl)cn3)C2)nnc1-c1ccccc1 (single isomer, unassigned) [Example 32.0, (3S)-1-(5-chloro-2-pyrimidinyl)-N-(4-(4,6-dimethoxy-5-pyrimidinyl)-5-phenyl-4H-1,2,4-triazol-3-yl)-3-piperidinesulfonamide or (3R)-1-(5-chloro-2-pyrimidinyl)-N-(4-(4,6-dimethoxy-5-pyrimidinyl)-5-phenyl-4H-1,2,4-triazol-3-yl)-3-piperidinesulfonamide] | 17 nM |
| COc1cccc(OC)c1-n1c(NS(=O)(=O)[C@H]2CCCN(c3ncc(Cl)cn3)C2)nnc1-c1ccccc1 (single isomer, unassigned) [Example 34.0, (S)-1-(5-Chloropyrimidin-2-yl)-N-(4-(2,6-dimethoxyphenyl)-5-phenyl-4H-1,2,4-triazol-3-yl)piperidine-3-sulfonamide or (R)-1-(5-chloropyrimidin-2-yl)-N-(4-(2,6-dimethoxyphenyl)-5-phenyl-4H-1,2,4-triazol-3-yl)piperidine-3-sulfonamide] | 28 nM |
| COc1cccc(OC)c1-n1c(NS(=O)(=O)[C@H]2CCCN(c3ncc(Cl)cn3)C2)nnc1-c1ccccc1 (single isomer, unassigned) [Example 35.0, (S)-1-(5-Chloropyrimidin-2-yl)-N-(4-(2,6-dimethoxyphenyl)-5-phenyl-4H-1,2,4-triazol-3-yl)piperidine-3-sulfonamide or (R)-1-(5-chloropyrimidin-2-yl)-N-(4-(2,6-dimethoxyphenyl)-5-phenyl-4H-1,2,4-triazol-3-yl)piperidine-3-sulfonamide] | 280 nM |
